Experiments:
[1] = molecular target: T1, α9 alone (homomeric α9 nAChR) (Homo sapiens, UniProt Q9UGM1, N442S); experiment: Two electrode voltage clamp recording in Xenopus oocytes injected with α9 alone; type: cell-based
T1 construct: expressed in transfected cells; host or cells: Xenopus laevis oocytes injected with cRNA made from cDNA in pSP64T.GL+
Experimental: (§1) 5 minutes washout time was allowed between each response. The data is corrected for run-up or run-down and expressed as a percentage of the maximum evoked current. Curves have been fitted using the non-linear curve fitting routine of Graph Pad. The fit is constrained to a lower bound of 0 while the upper bound is unconstrained. The correlation coefficients are R^2=0.9999 and 0.9980 for α9 and α9/α10, respectively.
(§2) Xenopus laevis females were purchased from Blades Biological, UK. The animals were maintained and dissected as described in Gould (1994) Membrane Protein and Expression Systems: a User's Guide Portland Press, London. Stage V or VI oocytes were de-folliculated by incubating with 0.2% collagenase (Sigma) in calcium-free Barth's solution on a vibrating platform set at 8 Hz for 2 hours at 18° C. Oocytes were then maintained in normal Barth's solution (containing 160 IU/ml penicillin and 74 IU/ml streptomycin). On the following day oocytes were injected with 1 to 25 ng cRNA using a Drummond Nanoject and left for at least three days before recording. cRNA was synthesised from cDNAs previously subcloned into the pSP64T.GL+ vector using the SP6 Message Machine Kit (Ambion).
(§3) Two electrode voltage clamp recording was carried out using a TURBO TEC-10CD (NPI Electronic GmbH, D-71732 Tamm, Germany). For current recording oocytes were placed in ND-96 Ringer (containing 96 mM NaCl, 1.8 mM CaCl2, 2 mM KCl, 1 mM MgCl2 and 5 mM HEPES (pH=7.4)) and impaled with two electrodes filled with 3 M KCl and 1 to 2 MΩ tip resistance. Recording were made in oocytes in which the membrane potential stabilised to potentials more negative than −20 mV during a 20 minute stabilisation period.
(§4) α10 nAChR function and pharmacology was investigated in Xenopus oocytes using two electrode voltage clamp techniques.

α9/α10 combination = molecular target: T2, α9/α10 combination (Homo sapiens, UniProt Q9GZZ6+Q9UGM1, N442S); experiment: Two electrode voltage clamp recording in Xenopus oocytes injected with α9 plus α10; type: cell-based
T2 construct: expressed in transfected cells; host or cells: Xenopus laevis oocytes injected with cRNA made from cDNAs in pSP64T.GL+
Experimental: as §1, §2, §3, §4

[2] = read-out: IC50 for inhibition of ACh-evoked response

T1 sequence (Q9UGM1 23-479 N442S): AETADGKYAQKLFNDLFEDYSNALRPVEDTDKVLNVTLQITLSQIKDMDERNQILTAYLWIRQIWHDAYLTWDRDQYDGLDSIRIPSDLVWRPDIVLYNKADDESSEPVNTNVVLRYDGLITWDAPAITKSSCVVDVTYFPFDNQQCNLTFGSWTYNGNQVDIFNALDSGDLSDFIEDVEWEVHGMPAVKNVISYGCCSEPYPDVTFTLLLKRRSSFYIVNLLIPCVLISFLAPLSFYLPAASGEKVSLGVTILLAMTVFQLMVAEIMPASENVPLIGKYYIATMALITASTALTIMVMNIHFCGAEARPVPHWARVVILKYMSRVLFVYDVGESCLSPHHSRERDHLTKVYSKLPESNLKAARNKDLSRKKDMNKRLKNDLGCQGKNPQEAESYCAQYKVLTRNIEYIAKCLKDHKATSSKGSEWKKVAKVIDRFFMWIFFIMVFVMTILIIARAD
T2 sequence (Q9GZZ6 25-450): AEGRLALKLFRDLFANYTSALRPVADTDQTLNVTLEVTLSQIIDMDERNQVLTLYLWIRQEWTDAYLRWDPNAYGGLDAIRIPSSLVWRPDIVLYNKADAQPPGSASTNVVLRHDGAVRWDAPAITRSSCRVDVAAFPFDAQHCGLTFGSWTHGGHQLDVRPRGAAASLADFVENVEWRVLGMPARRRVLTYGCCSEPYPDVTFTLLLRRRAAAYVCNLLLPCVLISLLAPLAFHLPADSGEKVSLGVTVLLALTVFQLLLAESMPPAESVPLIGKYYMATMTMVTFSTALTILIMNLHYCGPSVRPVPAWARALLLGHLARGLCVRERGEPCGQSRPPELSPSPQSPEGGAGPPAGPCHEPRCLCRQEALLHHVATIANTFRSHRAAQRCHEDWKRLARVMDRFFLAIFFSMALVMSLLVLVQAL
T2 sequence (Q9UGM1 23-479 N442S): as the sequence (Q9UGM1 23-479 N442S) above

Row | Molecule | proportional increase in area-under-the curve for normalised responses ([1]; 30 s ACh application compared to 10 s application, α9 alone, N=2) | proportional increase in area-under-the curve for normalised responses (α9/α10 combination; 30 s ACh application compared to 10 s application, α9/α10, N=2) | Hill coefficient of inhibition curve [1] | IC50 [1, 2] | Hill coefficient of inhibition curve (α9/α10 combination) | IC50 (α9/α10 combination; [2])
1 | CC(=O)OCC[N+](C)(C)C [ACh, acetylcholine] | 82% | 44% |  |  |  | 
2 | α-bungarotoxin [α-Btx] |  |  | −1.25 | 2.7 nM | −0.89 | 3.7 nM

Source: patent US20060127914A1 (priority 1999, published 2006)
